Tested on: plants
Test: Test D pre-emergence, other plants of Tables D1 and D3
Type: in vivo
Details: preemergent
Method in brief: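 Seeds treated with herbicide safener; sown in soil; glasshouse, 16 h light, 65% humidity. Sprayed day 1 (pre) or ~day 12 (post). Spray in 0.2% v/v adjuvant. Scored 0–100 damage: 20 DAA pre, 15 d post.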

CN1CC(c2cc(Cl)n(C)n2)C(C(=O)Nc2ccc(F)c(F)c2F)C1=O (racemic) [Compound 31]
ABUTH damage to plant (100=total damage; 0=no damage) (Rates 15, 20 DAA): 0
AMARE damage to plant (100=total damage; 0=no damage) (Rates 15, 20 DAA): 0
BIDPI damage to plant (100=total damage; 0=no damage) (Rates 15, 20 DAA): 0
BRAPL damage to plant (100=total damage; 0=no damage) (Rates 15, 20 DAA): 0
CYPES damage to plant (100=total damage; 0=no damage) (Rates 15, 20 DAA): 0
DIGSA damage to plant (100=total damage; 0=no damage) (Rates 15, 20 DAA): 0
ECHCG damage to plant (100=total damage; 0=no damage) (Rates 15, 20 DAA): 0
EPHHL damage to plant (100=total damage; 0=no damage) (Rates 15, 20 DAA): 0
GLXMA damage to plant (100=total damage; 0=no damage) (Rates 15, 20 DAA): 0
IPOHE damage to plant (100=total damage; 0=no damage) (Rates 15, 20 DAA): 0
ORYSA damage to plant (100=total damage; 0=no damage) (Rates 15, 20 DAA): 0
PANMI damage to plant (100=total damage; 0=no damage) (Rates 15, 20 DAA): 0
SETFA damage to plant (100=total damage; 0=no damage) (Rates 15, 20 DAA): 0
SORVU damage to plant (100=total damage; 0=no damage) (Rates 15, 20 DAA): 0
ABUTH damage to plant (100=total damage; 0=no damage) (Rates 30, 20 DAA): 0
AMARE damage to plant (100=total damage; 0=no damage) (Rates 30, 20 DAA): 0
BIDPI damage to plant (100=total damage; 0=no damage) (Rates 30, 20 DAA): 0
BRAPL damage to plant (100=total damage; 0=no damage) (Rates 30, 20 DAA): 10
CYPES damage to plant (100=total damage; 0=no damage) (Rates 30, 20 DAA): 0
DIGSA damage to plant (100=total damage; 0=no damage) (Rates 30, 20 DAA): 10
ECHCG damage to plant (100=total damage; 0=no damage) (Rates 30, 20 DAA): 0
EPHHL damage to plant (100=total damage; 0=no damage) (Rates 30, 20 DAA): 0
GLXMA damage to plant (100=total damage; 0=no damage) (Rates 30, 20 DAA): 0
IPOHE damage to plant (100=total damage; 0=no damage) (Rates 30, 20 DAA): 0
ORYSA damage to plant (100=total damage; 0=no damage) (Rates 30, 20 DAA): 0
PANMI damage to plant (100=total damage; 0=no damage) (Rates 30, 20 DAA): 0
SETFA damage to plant (100=total damage; 0=no damage) (Rates 30, 20 DAA): 0
SORVU damage to plant (100=total damage; 0=no damage) (Rates 30, 20 DAA): 0
ABUTH damage to plant (100=total damage; 0=no damage) (Rates 60, 20 DAA): 0
AMARE damage to plant (100=total damage; 0=no damage) (Rates 60, 20 DAA): 0
BIDPI damage to plant (100=total damage; 0=no damage) (Rates 60, 20 DAA): 0
BRAPL damage to plant (100=total damage; 0=no damage) (Rates 60, 20 DAA): 60
CYPES damage to plant (100=total damage; 0=no damage) (Rates 60, 20 DAA): 0
DIGSA damage to plant (100=total damage; 0=no damage) (Rates 60, 20 DAA): 50
ECHCG damage to plant (100=total damage; 0=no damage) (Rates 60, 20 DAA): 30
EPHHL damage to plant (100=total damage; 0=no damage) (Rates 60, 20 DAA): 0
GLXMA damage to plant (100=total damage; 0=no damage) (Rates 60, 20 DAA): 0
IPOHE damage to plant (100=total damage; 0=no damage) (Rates 60, 20 DAA): 0
ORYSA damage to plant (100=total damage; 0=no damage) (Rates 60, 20 DAA): 0
PANMI damage to plant (100=total damage; 0=no damage) (Rates 60, 20 DAA): 0
SETFA damage to plant (100=total damage; 0=no damage) (Rates 60, 20 DAA): 10
SORVU damage to plant (100=total damage; 0=no damage) (Rates 60, 20 DAA): 0
ABUTH damage to plant (100=total damage; 0=no damage) (Rates 130, 20 DAA): 0
AMARE damage to plant (100=total damage; 0=no damage) (Rates 130, 20 DAA): 0
BIDPI damage to plant (100=total damage; 0=no damage) (Rates 130, 20 DAA): 0
BRAPL damage to plant (100=total damage; 0=no damage) (Rates 130, 20 DAA): 80
CYPES damage to plant (100=total damage; 0=no damage) (Rates 130, 20 DAA): 0
DIGSA damage to plant (100=total damage; 0=no damage) (Rates 130, 20 DAA): 90
ECHCG damage to plant (100=total damage; 0=no damage) (Rates 130, 20 DAA): 30
EPHHL damage to plant (100=total damage; 0=no damage) (Rates 130, 20 DAA): 0
GLXMA damage to plant (100=total damage; 0=no damage) (Rates 130, 20 DAA): 0
IPOHE damage to plant (100=total damage; 0=no damage) (Rates 130, 20 DAA): 0
ORYSA damage to plant (100=total damage; 0=no damage) (Rates 130, 20 DAA): 0
PANMI damage to plant (100=total damage; 0=no damage) (Rates 130, 20 DAA): 0
SETFA damage to plant (100=total damage; 0=no damage) (Rates 130, 20 DAA): 30
SORVU damage to plant (100=total damage; 0=no damage) (Rates 130, 20 DAA): 0
ABUTH damage to plant (100=total damage; 0=no damage) (Rates 250, 20 DAA): 0
AMARE damage to plant (100=total damage; 0=no damage) (Rates 250, 20 DAA): 0
BIDPI damage to plant (100=total damage; 0=no damage) (Rates 250, 20 DAA): 0
BRAPL damage to plant (100=total damage; 0=no damage) (Rates 250, 20 DAA): 80
CYPES damage to plant (100=total damage; 0=no damage) (Rates 250, 20 DAA): 0
DIGSA damage to plant (100=total damage; 0=no damage) (Rates 250, 20 DAA): 90
ECHCG damage to plant (100=total damage; 0=no damage) (Rates 250, 20 DAA): 80
EPHHL damage to plant (100=total damage; 0=no damage) (Rates 250, 20 DAA): 0
GLXMA damage to plant (100=total damage; 0=no damage) (Rates 250, 20 DAA): 0
IPOHE damage to plant (100=total damage; 0=no damage) (Rates 250, 20 DAA): 0
ORYSA damage to plant (100=total damage; 0=no damage) (Rates 250, 20 DAA): 0
PANMI damage to plant (100=total damage; 0=no damage) (Rates 250, 20 DAA): 0
SETFA damage to plant (100=total damage; 0=no damage) (Rates 250, 20 DAA): 20
SORVU damage to plant (100=total damage; 0=no damage) (Rates 250, 20 DAA): 0
ABUTH damage to plant (100=total damage; 0=no damage) (Rates 500, 20 DAA): 0
AMARE damage to plant (100=total damage; 0=no damage) (Rates 500, 20 DAA): 0
BIDPI damage to plant (100=total damage; 0=no damage) (Rates 500, 20 DAA): 0
BRAPL damage to plant (100=total damage; 0=no damage) (Rates 500, 20 DAA): 90
CYPES damage to plant (100=total damage; 0=no damage) (Rates 500, 20 DAA): 0
DIGSA damage to plant (100=total damage; 0=no damage) (Rates 500, 20 DAA): 90
ECHCG damage to plant (100=total damage; 0=no damage) (Rates 500, 20 DAA): 90
EPHHL damage to plant (100=total damage; 0=no damage) (Rates 500, 20 DAA): 0
GLXMA damage to plant (100=total damage; 0=no damage) (Rates 500, 20 DAA): 0
IPOHE damage to plant (100=total damage; 0=no damage) (Rates 500, 20 DAA): 0
ORYSA damage to plant (100=total damage; 0=no damage) (Rates 500, 20 DAA): 0
PANMI damage to plant (100=total damage; 0=no damage) (Rates 500, 20 DAA): 0
SETFA damage to plant (100=total damage; 0=no damage) (Rates 500, 20 DAA): 90
SORVU damage to plant (100=total damage; 0=no damage) (Rates 500, 20 DAA): 0

Reference: patent US20220281848A1, “PYRAZOLE-SUBSTITUTED PYRROLIDINONES AS HERBICIDES” (FMC Corporation, priority 2019, published 2022)
